pIC50: −log10 of the molar value.

Sequence of human ACC2 (O00763 129-2458): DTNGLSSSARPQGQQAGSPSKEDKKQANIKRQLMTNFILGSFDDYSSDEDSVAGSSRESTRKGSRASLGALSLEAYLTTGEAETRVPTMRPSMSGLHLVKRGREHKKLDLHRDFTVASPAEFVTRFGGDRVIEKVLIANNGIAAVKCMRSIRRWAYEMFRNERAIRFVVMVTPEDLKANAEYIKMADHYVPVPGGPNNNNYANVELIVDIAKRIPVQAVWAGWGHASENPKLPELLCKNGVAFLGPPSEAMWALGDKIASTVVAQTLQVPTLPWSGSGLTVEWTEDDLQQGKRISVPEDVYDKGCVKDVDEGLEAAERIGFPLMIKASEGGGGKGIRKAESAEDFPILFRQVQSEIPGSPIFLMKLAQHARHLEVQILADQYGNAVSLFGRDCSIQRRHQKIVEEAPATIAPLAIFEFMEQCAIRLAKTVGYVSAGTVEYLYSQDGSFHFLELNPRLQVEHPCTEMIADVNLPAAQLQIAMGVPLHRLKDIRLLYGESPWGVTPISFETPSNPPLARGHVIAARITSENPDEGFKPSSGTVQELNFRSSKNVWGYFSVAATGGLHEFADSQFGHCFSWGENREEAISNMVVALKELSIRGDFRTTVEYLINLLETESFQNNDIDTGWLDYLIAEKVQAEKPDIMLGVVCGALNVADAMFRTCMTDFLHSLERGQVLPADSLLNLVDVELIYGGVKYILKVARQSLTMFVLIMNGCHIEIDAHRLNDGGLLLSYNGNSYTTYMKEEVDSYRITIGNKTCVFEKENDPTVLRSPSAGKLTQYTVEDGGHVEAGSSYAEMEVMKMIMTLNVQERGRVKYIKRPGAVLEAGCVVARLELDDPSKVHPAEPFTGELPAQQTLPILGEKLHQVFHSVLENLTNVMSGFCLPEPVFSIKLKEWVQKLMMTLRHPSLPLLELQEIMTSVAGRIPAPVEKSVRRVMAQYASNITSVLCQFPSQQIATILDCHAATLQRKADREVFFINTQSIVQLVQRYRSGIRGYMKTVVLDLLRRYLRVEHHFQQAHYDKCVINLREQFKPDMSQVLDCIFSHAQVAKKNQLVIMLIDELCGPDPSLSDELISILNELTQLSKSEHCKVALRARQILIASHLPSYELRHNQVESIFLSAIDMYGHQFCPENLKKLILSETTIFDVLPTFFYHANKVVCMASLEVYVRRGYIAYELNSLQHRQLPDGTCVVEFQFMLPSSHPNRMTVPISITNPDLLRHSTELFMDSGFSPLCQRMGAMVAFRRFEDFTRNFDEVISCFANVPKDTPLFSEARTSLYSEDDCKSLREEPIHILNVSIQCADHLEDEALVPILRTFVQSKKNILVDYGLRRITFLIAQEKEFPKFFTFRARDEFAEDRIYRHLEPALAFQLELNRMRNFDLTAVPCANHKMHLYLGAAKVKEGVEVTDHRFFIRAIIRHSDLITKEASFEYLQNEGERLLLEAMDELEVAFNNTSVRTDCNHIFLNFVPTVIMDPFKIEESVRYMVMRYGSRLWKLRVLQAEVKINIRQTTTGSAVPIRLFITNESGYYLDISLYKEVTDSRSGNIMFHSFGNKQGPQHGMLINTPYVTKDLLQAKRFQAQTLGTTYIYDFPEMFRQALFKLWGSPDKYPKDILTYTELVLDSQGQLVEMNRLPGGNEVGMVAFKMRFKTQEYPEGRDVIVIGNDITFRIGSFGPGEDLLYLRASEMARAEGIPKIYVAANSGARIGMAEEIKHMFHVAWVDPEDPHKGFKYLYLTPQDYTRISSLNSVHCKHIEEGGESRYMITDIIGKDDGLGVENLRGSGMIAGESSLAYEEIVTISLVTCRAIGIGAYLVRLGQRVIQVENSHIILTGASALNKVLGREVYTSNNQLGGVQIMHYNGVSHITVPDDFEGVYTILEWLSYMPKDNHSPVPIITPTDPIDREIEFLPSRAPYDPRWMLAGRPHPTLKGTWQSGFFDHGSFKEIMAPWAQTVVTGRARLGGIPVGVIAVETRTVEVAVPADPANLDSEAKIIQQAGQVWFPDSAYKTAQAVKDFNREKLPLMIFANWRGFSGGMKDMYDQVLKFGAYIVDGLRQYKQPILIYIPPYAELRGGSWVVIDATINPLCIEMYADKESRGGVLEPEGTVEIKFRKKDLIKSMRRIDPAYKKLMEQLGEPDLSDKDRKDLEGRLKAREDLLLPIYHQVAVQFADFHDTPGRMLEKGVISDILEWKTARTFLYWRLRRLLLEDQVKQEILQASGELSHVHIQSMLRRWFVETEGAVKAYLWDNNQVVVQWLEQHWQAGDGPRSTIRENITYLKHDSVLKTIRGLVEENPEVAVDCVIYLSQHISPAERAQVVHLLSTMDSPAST

The target of this experiment is human ACC2 (Homo sapiens (Human), UniProt O00763). Kind of experiment: ACC2 assay: spectrophotometric 384 well assay (coupled lactate dehydrogenase/pyruvate kinase). In kind it is biochemical. Particulars: hACC2 construct lacking the 128 N-terminal amino acids, 25° C., 340 nm. In outline:
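N-terminally truncated human ACC2 from insect cells; ADP formation coupled via pyruvate kinase/lactate dehydrogenase, NADH loss read at 340 nm over 15 min at 25 °C, pH 7.5. Started with NADH, acetyl-CoA and 500 µM ATP; 1% DMSO. IC50 by nonlinear fit of background-subtracted slopes.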
Broadly, the pIC50 is the IC50 on a negative log10 scale, so that one unit is a factor of ten. As for `C[C@H](NC(=O)[C@H]1C[C@H](F)C1)c1ccc(CN2Cc3ccc(OCC4CC4)cc3C(F)C2)cc1` (some centres unmarked) [Example 3.023], the pIC50 was 7.35.
`CCC(=O)N[C@@H](C)c1ccc(CN2Cc3ccc(OCC4CC4)cc3C(F)C2)cc1` (some centres unmarked) [Example 3.024] gave a pIC50 of 7.66.
`CCC(=O)Nc1nc(C)c(C(=O)N[C@@H](C)c2ccc(CN3Cc4ccc(OCC5CC5)cc4C(F)C3)cc2)s1` (some centres unmarked) [Example 3.025] showed a pIC50 of 7.59.
As for `C[C@H](NC(=O)CC#N)c1ccc(CN2Cc3ccc(OCC4CC4)cc3C(F)C2)cc1` (some centres unmarked) [Example 3.026], the pIC50 is 7.31.
On to `CCC(=O)N[C@@H](C)c1ccc(CN2Cc3ccc(OCC4CC4(F)F)cc3C(F)C2)cc1` (some centres unmarked) [Example 3.027], for which the negative logarithm of the IC50 (pIC50) is 7.42.
Take `C[C@H](NC(=O)C1(C#N)CC1)c1ccc(CN2Cc3ccc(OCC4CC4(F)F)cc3C(F)C2)cc1` (some centres unmarked) [Example 3.028]: the pIC50 was 7.34.
The result for `C[C@H](NC(=O)CC#N)c1ccc(CN2Cc3ccc(OCC4CC4(F)F)cc3C(F)C2)cc1` (some centres unmarked) [Example 3.029] reads 7.35; that for `C[C@H](NC(=O)[C@H]1C[C@H](F)C1)c1ccc(CN2Cc3ccc(OCC4CC4(F)F)cc3C(F)C2)cc1` (some centres unmarked) [Example 3.031], 7.11; that for `CC(=O)Nc1nc(C)c(C(=O)N[C@@H](C)c2ccc(CN3Cc4ccc(OCC5CC5(F)F)cc4C(F)C3)cc2)s1` (some centres unmarked) [Example 3.032], 7.24.
Molecule `C[C@H](NC(=O)c1ncc[nH]1)c1ccc(CN2Cc3ccc(OCC4CC4)cc3C(F)C2)cc1` (some centres unmarked) [Example 3.033] gave a pIC50 of 6.45.
Under `C[C@H](NC(=O)CC(N)=O)c1ccc(CN2Cc3ccc(OCC4CC4)cc3C(F)C2)cc1` (some centres unmarked) [Example 3.034] stands 6.94.
As to `C[C@H](NC(=O)C1CCC(=O)N1)c1ccc(CN2Cc3ccc(OCC4CC4)cc3C(F)C2)cc1` (some centres unmarked) [Example 3.035], the pIC50 was 6.84.
Molecule `CC(=O)Nc1nc(C)c(C(=O)N[C@@H](C)c2ccc(CN3Cc4ccc(OCC5CC5)cc4C(F)C3)cc2)o1` (some centres unmarked) [Example 3.036] had a pIC50 of 6.29.
`C[C@H](NC(=O)Cc1cnccn1)c1ccc(CN2Cc3ccc(OCC4CC4)cc3C(F)C2)cc1` (some centres unmarked) [Example 3.037]: the pIC50 was 7.22.
The molecule `C[C@H](NC(=O)C1CC1)c1ccc(CN2Cc3ccc(OCC4CC4)cc3C(O)C2)cc1` (some centres unmarked) [Example 3.038] showed a pIC50 of 6.70.
In turn, `CCC(=O)N[C@@H](C)c1ccc(CN2Cc3ccc(OCC4CC4)cc3C(O)C2)cc1` (some centres unmarked) [Example 3.039] gave a pIC50 of 6.87.
For the molecule `CCC(=O)Nc1nc(C)c(C(=O)N[C@@H](C)c2ccc(CN3Cc4ccc(OCC5CC5)cc4C(O)C3)cc2)s1` (some centres unmarked) [Example 3.040], the pIC50 is 6.72.
Under `C[C@H](NC(=O)C1CCC1)c1ccc(CN2Cc3ccc(OCC4CC4)cc3C(O)C2)cc1` (some centres unmarked) [Example 3.041] stands 6.31.
The molecule `C[C@H](NC(=O)C1CCC1)c1ccc(CN2Cc3ccc(OCC4CC4)cc3C(F)C2)cc1` (some centres unmarked) [Example 3.042] showed a pIC50 of 7.14.
`C[C@H](NC(=O)C1(C#N)CC1)c1ccc(CN2Cc3ccc(OCC4CC4)cc3C(O)C2)cc1` (some centres unmarked) [Example 3.043] gave a pIC50 of 6.45.
Under `C[C@H](NC(=O)C1(C#N)CC1)c1ccc(CN2Cc3ccc(OCC4CC4)cc3C(F)C2)cc1` (some centres unmarked) [Example 3.044] stands 7.21; under `CC(=O)Nc1nc(C)c(C(=O)N[C@@H](C)c2ccc(CN3Cc4ccc(OCC5CC5)cc4C(O)C3)cc2)s1` (some centres unmarked) [Example 3.045], 6.64.
`CC(=O)Nc1nc(C)c(C(=O)N[C@@H](C)c2ccc(CN3Cc4ccc(OCC5CC5)cc4C(F)C3)cc2)s1` (some centres unmarked) [Example 3.046]: the pIC50 is 7.25.
`C[C@H](NC(=O)c1cncs1)c1ccc(CN2Cc3ccc(OCC4CC4)cc3C(O)C2)cc1` (some centres unmarked) [Example 3.047]: the pIC50 is 6.51.
`C[C@H](NC(=O)c1cncs1)c1ccc(CN2Cc3ccc(OCC4CC4)cc3C(F)C2)cc1` (some centres unmarked) [Example 3.048] had a pIC50 of 7.23.
For `C[C@H](NC(=O)[C@H]1C[C@H](F)C1)c1ccc(CN2Cc3ccc(OCC4CC4)cc3C(O)C2)cc1` (some centres unmarked) [Example 3.049], the pIC50 is 6.35.
In turn, `C[C@H](NC(=O)[C@@H]1CC[C@H](NC(=O)OC(C)(C)C)C1)c1ccc(CN2Cc3ccc(OCC4CC4)cc3C(F)C2)cc1` (some centres unmarked) [Example 3.050] showed a pIC50 of 6.51.
Consider `C[C@H](NC(=O)CC#N)c1ccc(CN2Cc3ccc(OCC4CC4)cc3C(O)C2)cc1` (some centres unmarked) [Example 3.051], for which the negative-log IC50 (pIC50) is 6.22.
Turning to `C[C@H](NC(=O)[C@@H]1CCC(=O)N1)c1ccc(CN2Cc3ccc(OCC4CC4)cc3C(F)C2)cc1` (some centres unmarked) [Example 3.052], the negative logarithm of the IC50 (pIC50) was 6.82.
Consider `C[C@H](NC(=O)[C@H]1CCC(=O)N1)c1ccc(CN2Cc3ccc(OCC4CC4)cc3C(F)C2)cc1` (some centres unmarked) [Example 3.053], for which the pIC50 was 6.67.
`C[C@H](NC(=O)C1CCC(=O)O1)c1ccc(CN2Cc3ccc(OCC4CC4)cc3C(F)C2)cc1` (some centres unmarked) [Example 3.054]: the pIC50 was 6.61.
The result for `C[C@H](NC(=O)C1(N)CC1)c1ccc(CN2Cc3ccc(OCC4CC4)cc3C(F)C2)cc1` (some centres unmarked) [Example 3.055] reads 7.26; that for `C[C@H](NC(=O)C1CCC[C@@H]1N)c1ccc(CN2Cc3ccc(OCC4CC4)cc3C(F)C2)cc1` (some centres unmarked) [Example 3.056], 6.05.
Under `C[C@H](NC(=O)C1COCCN1)c1ccc(CN2Cc3ccc(OCC4CC4)cc3C(F)C2)cc1` (some centres unmarked) [Example 3.057] stands 6.45; under `C[C@H](NC(=O)CN)c1ccc(CN2Cc3ccc(OCC4CC4)cc3C(F)C2)cc1` (some centres unmarked) [Example 3.058], 6.58; under `C[C@H](NC(=O)CO)c1ccc(CN2Cc3ccc(OCC4CC4)cc3C(F)C2)cc1` (some centres unmarked) [Example 3.059], 7.33.
Consider `C[C@H](O)C(=O)N[C@@H](C)c1ccc(CN2Cc3ccc(OCC4CC4)cc3C(F)C2)cc1` (some centres unmarked) [Example 3.060], for which the pIC50 was 6.88.
Under `C[C@H](NC(=O)[C@@H](C)O)c1ccc(CN2Cc3ccc(OCC4CC4)cc3C(F)C2)cc1` (some centres unmarked) [Example 3.061] stands 7.05; under `C[C@H](NC(=O)C1(O)CC1)c1ccc(CN2Cc3ccc(OCC4CC4)cc3C(F)C2)cc1` (some centres unmarked) [Example 3.062], 6.99; under `C[C@H](NC(=O)c1cn[nH]c1)c1ccc(CN2Cc3ccc(OCC4CC4)cc3C(O)C2)cc1` (some centres unmarked) [Example 3.063], 6.58.
Molecule `C[C@H](NC(=O)c1cn[nH]c1)c1ccc(CN2Cc3ccc(OCC4CC4)cc3C(F)C2)cc1` (some centres unmarked) [Example 3.064] gave a pIC50 of 7.28.
`CCC(=O)N[C@@H](C)c1ccc(CN2CCc3cc(OCC4CC4(F)F)ccc3C2)cc1` (stereo partly drawn) [Example 4.001, N—((S)-1-{4-[6-(2,2-Difluoro-cyclopropylmethoxy)-3,4-dihydro-1H-isoquinolin-2-ylmethyl]-phenyl}-ethyl)-propionamide] had a pIC50 of 7.43.
The result for `C[C@H](NC(=O)C(F)(F)F)c1ccc(CN2CCc3cc(OCC4CC4(F)F)ccc3C2)cc1` (some centres unmarked) [Example 4.002] reads 7.28; that for `C[C@H](NC(=O)C(F)F)c1ccc(CN2CCc3cc(OCC4CC4(F)F)ccc3C2)cc1` (some centres unmarked) [Example 4.003], 7.60.
As for `CCNC(=O)N[C@@H](C)c1ccc(CN2CCc3cc(OCC4CC4(F)F)ccc3C2)cc1` (stereo partly drawn) [Example 5.001, 1-((S)-1-{4-[6-(2,2-Difluoro-cyclopropylmethoxy)-3,4-dihydro-1H-isoquinolin-2-ylmethyl]-phenyl}-ethyl)-3-ethyl-urea], the pIC50 is 7.12.
In turn, `CNC(=O)N[C@@H](C)c1ccc(CN2CCc3cc(OCC4CC4(F)F)ccc3C2)cc1` (some centres unmarked) [Example 5.002] showed a pIC50 of 7.23.
Take `C[C@H](NC(=O)N(C)C)c1ccc(CN2CCc3cc(OCC4CC4(F)F)ccc3C2)cc1` (some centres unmarked) [Example 5.003]: the pIC50 is 7.70.
Take `C[C@H](NC(=O)N(C)C)c1ccc(CN2Cc3ccc(OCC4CC4(F)F)cc3C(F)C2)cc1` (some centres unmarked) [Example 5.004]: the pIC50 is 7.77.
As for `C[C@H](NC(=O)N(C)C)c1ccc(CN2Cc3ccc(OCC4CC4)cc3C(O)C2)cc1` (some centres unmarked) [Example 5.005], the pIC50 was 6.81.
The result for `CCNC(=O)N[C@@H](C)c1ccc(CN2Cc3ccc(OCC4CC4)cc3C(O)C2)cc1` (some centres unmarked) [Example 5.006] reads 6.06; that for `CCNC(=O)N[C@@H](C)c1ccc(CN2Cc3ccc(OCC4CC4)cc3C(F)C2)cc1` (some centres unmarked) [Example 5.007], 7.31; that for `COC(=O)N[C@@H](C)c1ccc(CN2Cc3ccc(OCC4CC4)cc3C(O)C2)cc1` (some centres unmarked) [Example 5.008], 6.43.
Molecule `COC(=O)N[C@@H](C)c1ccc(CN2Cc3ccc(OCC4CC4)cc3C(F)C2)cc1` (some centres unmarked) [Example 5.009] showed a pIC50 of 6.94.
Under `C[C@H](NC(=O)N(C)C)c1ccc(CN2Cc3ccc(OCC4CC4(F)F)cc3C(O)C2)cc1` (some centres unmarked) [Example 6.002] stands 6.76; under `COc1cccc2c1CCN(Cc1ccc([C@H](C)NC(C)=O)cc1)C2` [Example 7.001, N-{(S)-1-[4-(5-Methoxy-3,4-dihydro-1H-isoquinolin-2-ylmethyl)-phenyl]-ethyl}-acetamide], 6.72; under `CC(=O)N[C@@H](C)c1ccc(CN2CCc3c(cccc3C(F)(F)F)C2)cc1` [Example 7.002], 6.98.
The result for `CC(=O)N[C@@H](C)c1ccc(CN2CCc3cc(OCC4CC4(F)F)ccc3C2)cc1` (some centres unmarked) [Example 7.003] reads 7.59; that for `CC(=O)N[C@@H](C)c1ccc(CN2CCc3c(Br)cccc3C2)cc1` [Example 7.004], 6.83; that for `CC(=O)N[C@@H](C)c1ccc(CN2CCc3c(cccc3OC3CCC3)C2)cc1` [Example 7.005], 7.24.
As for `C[C@H](NC(=O)C1CC1)c1ccc(CN2CC(=O)c3cc(OCC4CC4(F)F)ccc3C2)cc1` (some centres unmarked) [Example 7.006], the pIC50 was 6.26.
Molecule `CCC(=O)N[C@@H](C)c1ccc(CN2CC(=O)c3cc(OCC4CC4(F)F)ccc3C2)cc1` (some centres unmarked) [Example 7.007] gave a pIC50 of 6.73.
The result for `CC(=O)N[C@@H](C)c1ccc(CN2CC(=O)c3cc(OCC4CC4(F)F)ccc3C2)cc1` (some centres unmarked) [Example 7.009] reads 7.30.

The record behind these values is US9340510B2, “Tetrahydroisoquinoline derivatives, pharmaceutical compositions and uses thereof” (Boehringer Ingelheim International GmbH, priority 2014, dated 2016).
